Data published in patent publication US20210154162A1, “DRUG AND PHARMACEUTICAL COMPOSITION CONTAINING TRANSPORT PROTEIN INHIBITOR, AND USE” (Institute of Basic Medical Sciences Chinese Academy of …, priority 2018, published 2021).
Blank lines part the entries; values can stand above or below the molecule they belong to.

Experiments:
[1] = tested on: OVA-B16 TRCs; experiment: OVA-B16 TRC / activated OT-1 T cell co-culture with IDO1 or SLC1A5 blockade (flow cytometry); assay type: cell-based, mouse; conditions: for expression of IFN-γ, TNF-α and CD107a: T cells in co-culture with OVA-B16 TRCs; for PD-1 expression on T cells: co-culture with OVA-B16 TRCs, 24 h; for TRC apoptosis: co-culture with activated OT-1 T cells, 4 h
Experimental: (7) Scramble- or shIDO1-(Sh1 or Sh2)-OVA B16 TRCs were co-cultured with anti-CD3/CD28 bead-activated OT-1 T cells. After 4 h or 24 h, TRC apoptosis (as shown in FIG. 2G) or PD-1 expression on T cells (as shown in FIG. 2H) was analyzed by flow cytometry. The analysis results were as shown in FIG. 2G and FIG. 2H, respectively.
(9) Scramble- and shSLC1A5-(Sh1 or Sh2)-OVA B16 TRCs were co-cultured with anti-CD3/CD28 bead-activated OT-1 T cells. After 4 h or 24 h, TRC apoptosis (as shown in FIG. 2J) or PD-1 expression (as shown in FIG. 2K) was analyzed by flow cytometry. The analysis results were as shown in FIG. 2J and FIG. 2K, respectively.

[2] = tested on: PD-1; experiment: PD-1 expression in patients' peripheral blood T cells treated with supernatants of IFN-γ-treated CD45- tumor cells; assay type: cell-based, human; conditions: CD45- tumor cells treated with IFN-γ with or without 1-MT 24 h; supernatants on T cells 24 h
Experimental: Moreover, very high PD-1 expression was found in tumor-infiltrating CD8^+ T cells of breast and colon cancer patients (FIG. 7A). […] It was worth noting that Kyn levels were strongly correlated with PD-1 expression in breast and colon cancer patients, but not in healthy people (FIG. 7C). To clarify the cellular source of the Kyn production, CD45^+ immune cells and CD45^− tumor cells isolated from breast tumor tissues (n=10) and colon tumor tissues (n=14) of patients were analyzed. IDO1 expression as well as Kyn levels were dominantly high in CD45^− cells rather than CD45^+ cells. Then, the inventors treated CD45^− tumor cells with IFN-γ in the presence or absence of 1-MT for 24 hours in vitro. The supernatants were used to treat peripheral blood T cells of patients for 24 hours.

[3] = tested on: AhR; experiment: PD-1 expression in activated CD8+ T cells treated with Kyn plus AhR inhibitor (flow cytometry); assay type: cell-based, mouse; conditions: Kyn plus inhibitor (DMF 10 or 20 μM), 72 h
Experimental: (4) CD8^+ T cells activated by anti-CD3/CD28 beads were treated with PBS, Kyn or Kyn/DMF (10 or 20 μM) for 72 h. The expression of PD-1 was determined by flow cytometry.

[4] = tested on: PAT4 and SLC7A8; experiment: PAT4 and SLC7A8 expression in activated CD8+ T cells (real-time PCR, immunostaining); assay type: cell-based, mouse
Experimental: (2) Activated CD8^+ T cells were treated with PBS or Kyn (200 μM) for 24 h. The expression of PAT4 and SLC7A8 was determined by real-time PCR (left) and immunostaining (right). Bar, […].
(6) The mRNA expression of PAT4 and SLC7A8 was determined in activated CD8^+ T cells treated with PBS, Kyn, Kyn/CH-223191 (10 μM) or Kyn/DMF (20 μM) for 48 h.

[5] = tested on: PD-1; experiment: OVA-B16 melanoma-bearing mice with adoptively transferred CFSE-labeled OT-1 T cells, PD-1 expression; assay type: in vivo, mouse; conditions: DMF 5 μg/mouse, 6 days; CFSE+ T cells from tumor mass, spleen or lymph nodes
Experimental: (6) C57BL/6 mice with 5×5 mm OVA-B16 melanoma were adoptively transferred with CFSE-labeled OT-1 CD8^+ T cells (4×10^6 cells/mouse, once every three days) on three occasions. At the same time, some mice were i.p. injected with Kyn (50 μg/mouse, once every two days) for three times. On Day 7 after transferring, CFSE^+CD8^+ T cells were isolated from tumor for flow cytometric analysis of PD-1 expression.
(8) The experimental steps were the same as those of step (7), except that C57BL/6 mice were treated with Kyn, DMF (5 μg/mouse, o.t., twice every day) or Kyn+DMF for 6 days. CFSE^+CD8^+ T cells from tumor were isolated for flow cytometric analysis of PD-1 expression.

[6] = tested on: B16 melanoma; experiment: B16 melanoma-bearing C57BL/6 mice treated with Kyn, DMF or Kyn+DMF; assay type: in vivo, mouse
Experimental: (9) C57BL/6 mice with 5×5 mm B16 melanoma were treated with PBS, Kyn (50 μg/mouse, i.p., once every two days), DMF (5 μg/mouse, o.t., once every day) or Kyn+DMF for 6 days. PD-1 expression in CD8^+ T cells isolated from tumors was determined by flow cytometry (n=5). (14) The experimental steps were the same as those of step (9), except that the tumors were weighed. The weighing results were as shown in FIG. 6P. *p<0.05, **p<0.01; #p<0.05, ##p<0.01, as compared with CTL group. The data represented mean±SEM.

[7] = tested on: PD-1; experiment: ID8 ovarian cancer and H22 hepatocarcinoma ascites peritoneal tumor models; assay type: in vivo, mouse; conditions: DMF
Experimental: (10) C57BL/6 mice were intraperitoneally injected with 1×10^6 ID8 ovarian cancer cells. After 10 days, mice were intraperitoneally administered with PBS, Kyn, DMF or Kyn+DMF for 6 days. CD8^+ T cells from ascites were isolated and PD-1 expression was determined by flow cytometry (n=5).

[8] = tested on: OVA-B16 melanoma; experiment: OVA-B16 melanoma mice, adoptive OT-1 CD8+ T cell transfer plus DMF or anti-PD-1 antibody; assay type: in vivo; conditions: anti-PD-1 antibody 250 μg/day or DMF 5 μg/mouse twice every day
Experimental: (13) C57BL/6 mice with 5×5 mm OVA-B16 melanoma were adoptively transferred with or without OT-1 CD8^+ T cells (4×10^6 cells/mouse) once per three days for three times. At the same time, these mice were treated with PBS, DMF (5 μg/mouse, o.t., twice every day) or anti-PD-1 neutralizing antibody (250 μg/day, once every two days, twice) for 20 days. The tumor growth was measured (left) and the long-term survival rate was analyzed (right).

[9] = tested on: PD-1; experiment: PD-1 expression in human CD8+ T cells treated with Kyn and AhR inhibitors (flow cytometry); assay type: cell-based; conditions: 48 h
Experimental: (4) CD8^+ T cells isolated from PBMCs of patients with breast cancer or lung cancer were activated by anti-CD3/CD28 beads and treated with PBS, Kyn (200 μM) or Kyn/DMF (20 μM) for 48 h. The expression of PD-1 was determined by flow cytometry.
(5) CD8^+ T cells isolated from patients with breast cancer or lung cancer were treated with DMF (20 μM) for 48 h. PD-1 expression was determined by flow cytometry (n=6).

[10] = tested on: PAT4 and SLC7A8; experiment: PAT4 and SLC7A8 expression in CD8+ T cells from breast cancer patients (real-time PCR); assay type: cell-based, human; conditions: Kyn/DMF (20 μM) or Kyn/CH (50 μM), 48 h
Experimental: (8) CD8^+ T cells from breast cancer patients were treated with PBS, Kyn ([…] (20 μM) or Kyn/CH (50 μM) for 48 h. The expression of PAT4 and SLC7A8 was determined by real-time PCR. The determination results were as shown in FIG. 7I.

[11] = target: T1, SLC1A5 (Mus musculus, UniProt P51912); experiment: Tryptophan levels in B16 TRC lysates (ELISA); assay type: cell-based
T1 construct: endogenous in cells; host or cells: B16 tumor-repopulating cells (TRCs)
T1 sequence (P51912 1-553): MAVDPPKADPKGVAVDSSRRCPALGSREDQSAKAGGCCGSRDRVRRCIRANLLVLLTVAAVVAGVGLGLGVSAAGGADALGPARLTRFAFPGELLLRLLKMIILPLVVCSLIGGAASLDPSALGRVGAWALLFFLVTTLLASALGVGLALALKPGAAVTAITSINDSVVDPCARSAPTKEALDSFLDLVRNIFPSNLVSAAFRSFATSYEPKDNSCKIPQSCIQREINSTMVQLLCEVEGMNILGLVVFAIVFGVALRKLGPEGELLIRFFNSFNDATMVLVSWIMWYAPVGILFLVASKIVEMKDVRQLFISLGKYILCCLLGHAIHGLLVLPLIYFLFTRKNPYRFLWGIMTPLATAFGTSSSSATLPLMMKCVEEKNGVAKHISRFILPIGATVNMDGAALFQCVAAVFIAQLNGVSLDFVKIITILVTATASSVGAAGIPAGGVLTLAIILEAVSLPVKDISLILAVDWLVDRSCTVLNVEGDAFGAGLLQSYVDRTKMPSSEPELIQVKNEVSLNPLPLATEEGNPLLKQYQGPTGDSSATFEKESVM
Experimental: (8) Tryptophan levels in cell lysates were determined by ELISA in scramble- and shSLC1A5-(Sh1 or Sh2)-B16 TRCs in the presence or absence of IFN-γ for 24 h.

[12] = target: T2, tryptophan transporter SLC1A5 (Mus musculus, UniProt P51912); experiment: Effect of GPNA on the uptake of tryptophan by tumor cells (ELISA of lysates); assay type: cell-based; conditions: OVA-B16 cells, 50 ng/mL IFN-γ + 10 μM GPNA, 24 h
T2 construct: endogenous in cells; host or cells: mouse OVA-B16 melanoma cells
T2 sequence (P51912 1-553): T1 sequence (P51912 1-553)
Experimental: Mouse OVA-B16 cells were cultured in RPMI-1640 culture medium in vitro and were group and treated as follows.
(§1) Control group 1 (PBS): culture medium+PBS;
Control group 2 (GPNA): culture medium+10 μM GPNA;
Experimental group 3 (IFN-γ): culture medium+50 ng/mL IFN-γ;
Experimental group 4 (IFN-γ+GPNA): culture medium+50 ng/mL IFN-γ+10 μM GPNA;
The cells in each group were collected after 24 h and ultrasonically broken, the concentrations of tryptophan in the lysates were determined by ELISA, and BCA protein assay was carried out at the same time.

[13] = tested on: PD-1; experiment: Effect of GPNA on PD-1 expression in specific OT-1 CD8+ T cells co-cultured with 3D-cultured OVA-B16 cells; assay type: cell-based, mouse; conditions: 3D-cultured OVA-B16 cells treated 12 h with 10 μM GPNA, co-culture 1:10, 4 h
Experimental: 3D-cultured OVA-B16 cells were grouped and treated with drug as follows.
as §1
Experimental group 2 (GPNA): culture medium+10 μM GPNA;
After 12 h of treatment, the cells were co-cultured with OT-1 CD8^+ T cells that had been activated for 48 h at a ratio of 1:10, and PD-1 expression in CD8^+ T cells was determined by flow cytometry after 4 h.

[14] = tested on: PD-L1; experiment: PD-L1 expression on TRCs upon IFN-γ; assay type: cell-based, mouse
[15] = tested on: B16 TRCs; experiment: Kyn release by IFN-γ-treated tumor cells (ELISA of supernatants); assay type: cell-based, mouse; conditions: IFN-γ 10 ng/ml, 24 h
Experimental: (3) OVA-B16 cells grown in culture flask or OVA-B16 TRCs were treated with IFN-γ (10 ng/ml) for 24 h. Kyn levels in the supernatants were determined by ELISA.

[16] = tested on: SLC1A5; experiment: SLC1A5 expression in TRCs upon IFN-γ; assay type: cell-based; conditions: IFN-γ treatment, mRNA and protein levels
[17] = tested on: IDO1; experiment: IDO1 expression in TRCs upon IFN-γ; assay type: cell-based

Molecule: Cn1cc(C[C@@H](N)C(=O)O)c2ccccc21 [1-MT]
- expression of IFN-γ, TNF-α and CD107a [1]: upregulation
- PD-1 expression on T cells [1]: downregulation
- TRC apoptosis [1]: more TRC apoptosis
- PD-1 upregulation in CD8+ T cells by supernatants [2]: blocked

Molecule: COc1ccc(-c2cc(=O)c3ccccc3o2)cc1OC [DMF, 3′,4′-dimethoxyflavone]
- Kyn-dependent upsurge of PD-1 [3]: thwarted
- Kyn-induced upregulation of SLC7A8 and PAT4 ([4]; activated CD8+ T cells, Kyn/CH-223191 (10 μM) or Kyn/DMF (20 μM), 48 h): effectively inhibiting
- Kyn-triggered upregulation of PD-1 expression in tumor-specific CD8+ T cells [5]: abrogated
- accelerated tumor growth seen with Kyn-treatment ([6]; Kyn+DMF): reversed
- Kyn-induced PD-1 upregulation in CD8+ T cells isolated from tumor, spleen or lymph nodes ([6]; Kyn+DMF (5 μg/mouse), 6 days): blocked
- expression pattern of PD-1, IFN-γ and TNF-α [7]: reversed
- therapeutic effect of adoptively transferred OVA-specific CD8+ T cells (tumor growth, survival) [8]: equal treatment efficiency
- Kyn-induced PD-1 upregulation ([9]; human CD8+ T cells, Kyn plus inhibitor (DMF 20 μM)): inhibited
- PD-1 expression ([9]; patients' CD8+ T cells, DMF alone 20 μM): directly downregulate PD-1 expression
- Kyn-induced upregulation of SLC7A8 and PAT4 [10]: blocked

- intracellular levels of tryptophan in TRCs [11]: decreased
- uptake of tryptophan by tumor cells [12]: significantly reduced
Molecule: N[C@@H](CCC(=O)Nc1ccc([N+](=O)[O-])cc1)C(=O)O [GPNA, L-γ-Glutamyl-p-nitroanilide]
- expression of IFN-γ, TNF-α and CD107a [1]: upregulation
- PD-1 expression on T cells [1]: downregulation
- TRC apoptosis [1]: more TRC apoptosis
- PD-1 expression in specific OT-1 CD8+ T cells [13]: significantly inhibit

Molecule: IFN-γ: recombinant IFN-γ purchased from R & D Systems
- expression of PD-L1 [14]: upregulated
- Kyn levels in the supernatants [15]: release high levels of Kyn
- expression of SLC1A5 [16]: further augmented
- IDO1 expression [17]: further upregulated
- expression of PAT4 and SLC7A8 ([4]; CD8+ T cells, IFN-γ treatment): did not affect
